The IC50 is the midpoint of a concentration-inhibition curve.

Molecules are shown by their SMILES.

Here are results for twelve compounds from paper PMC11496704, “Synthesis and cytotoxicity studies of novel N-arylbenzo[h]quinazolin-2-amines” (Beilstein Journal of Organic Chemistry, 2024).

Assay type in all cases: cell-based
One data set concerns HuH-7. Put plainly: Cytotoxicity secondary screen (IC50). Particulars: Homo sapiens, 48 h exposure, mean of triplicates, NE: no effect. How it is done:
(§1) Cell culture. Skin normal fibroblastic cells are purchased from Lonza (Basel, Switzerland), HuH-7, Caco-2, MDA-MB-231, HCT-116, PC3, MCF7 and NCI-H727 cancer cell lines were obtained from ATCC (American Type Culture Collection). Cells are grown at 37 °C, 5% CO2 in ATCC recommended media: DMEM for HuH-7, MDA-MB-231, MDA-MB-468 and fibroblast, EMEM for MCF7 and CaCo-2, McCoy’s for HCT-116 and RPMI for PC3 and NCI-H727. All culture media are supplemented by 10% of FBS, 1% of penicillin-streptomycin and 2 mM glutamine.
(§2) Both studies have been performed following the protocols described in a previous paper, see ref. [2].

For data set [1], the system named is PC3. Put plainly: Cytotoxicity secondary screen (IC50). The conditions noted are these: Homo sapiens, PC-3; 48 h exposure, mean of triplicates; NE: no effect. As to the method:
as §1, §2

The test system of another data set is normal human fibroblasts. Put plainly: Cytotoxicity secondary screen (IC50). Particulars: Fibroblast, 48 h exposure, mean of triplicates, NE: no effect, highest concentration tested 25 μM, read-out: IC50 Fibro. How it is done:
as §1, §2

Data set [2] concerns Caco-2. Kind of data set: Cytotoxicity secondary screen (IC50). Particulars: Homo sapiens, 48 h exposure, mean of triplicates, NE: no effect. How it is done: (§3) Next, we performed a cytotoxicity screening of the nineteen molecules 4a–s, at 25 μM, investigating seven representative cancer cell lines: hepatocellular carcinoma HuH-7, colorectal adenocarcinoma CaCo-2, breast carcinoma MDA-MB-231 and MDA-MB-468, colorectal carcinoma HCT-116, prostate carcinoma PC3 and breast carcinoma MCF7. […] For details see: ref. [2] and Supporting Information File 1, Table S1.
as §1, §2

In another data set the test system is HCT-116. Kind of data set: Cytotoxicity secondary screen (IC50). Particulars: Homo sapiens, 48 h exposure, mean of triplicates, NE: no effect. How it is done:
as §3, §1, §2

Data set [3] relates to Caco-2. Put plainly: Cytotoxicity primary screen (single dose). The conditions noted are these: single dose 25 μM, 48 h exposure, mean of triplicates. As to the method: as §3, §1, §2
(§4) Table S1: Cytotoxicity studies (single dose at 25µM) of N-arylbenzo[h]quinazolin-2-amines 4a–s
(§5) The toxicity is expressed as the percentage of cell survival (from 100 % to 0 %) over DMSO control after 48 h exposure (mean of triplicates).
(§6) Effect of the solvent (DMSO) was studied at 0.25%.

For a further data set, the system named is HuH7. Kind of data set: Cytotoxicity primary screen (single dose). The conditions noted are these: Homo sapiens, Huh-7; single dose 25 μM, 48 h exposure, mean of triplicates; read-out: percentage of cell survival over DMSO control, HuH7. How it is done: as §3, §1, §2, §4, §5, §6
Another data set relates to HCT116. Kind of data set: Cytotoxicity primary screen (single dose). The conditions noted are these: Homo sapiens, HCT-116; single dose 25 μM, 48 h exposure, mean of triplicates; read-out: percentage of cell survival over DMSO control, HCT116. How it is done:
as §3, §1, §2, §4, §5, §6

For data set [4], the system named is MCF7. Put plainly: Cytotoxicity primary screen (single dose). The conditions noted are these: Homo sapiens, single dose 25 μM, 48 h exposure, mean of triplicates, read-out: percentage of cell survival over DMSO control, MCF7. How it is done:
as §3, §1, §2, §4, §5, §6

The test system of a further data set is MDA231. Kind of data set: Cytotoxicity primary screen (single dose). The conditions noted are these: Homo sapiens, MDA-MB-231; single dose 25 μM, 48 h exposure, mean of triplicates; read-out: percentage of cell survival over DMSO control, MDA231. As to the method: as §3, §1, §2, §4, §5, §6
A further data set concerns MDA468. Put plainly: Cytotoxicity primary screen (single dose). The conditions noted are these: single dose 25 μM, 48 h exposure, mean of triplicates; read-out: percentage of cell survival over DMSO control, MDA468. How it is done:
as §3, §1, §2, §4, §5, §6

The subject of data set [5] is PC3. Put plainly: Cytotoxicity primary screen (single dose). The conditions noted are these: Homo sapiens, PC-3; single dose 25 μM, 48 h exposure, mean of triplicates; read-out: percentage of cell survival over DMSO control, PC3. How it is done: as §3, §1, §2, §4, §5, §6
In the next data set the test system is MDA-MB-231. Kind of data set: Cytotoxicity secondary screen (IC50). The conditions noted are these: Homo sapiens, 48 h exposure, mean of triplicates, NE: no effect.
A further data set relates to MDA-MB-468. Kind of data set: Cytotoxicity secondary screen (IC50). Particulars: Homo sapiens, 48 h exposure, mean of triplicates, NE: no effect.
The test system of data set [6] is MCF7. Put plainly: Cytotoxicity secondary screen (IC50). Particulars: Homo sapiens, 48 h exposure, mean of triplicates, NE: no effect.

As for `Clc1cc(Br)cc(Nc2ncc3ccc4ccccc4c3n2)c1` [Compound 4q, N-(3-bromo-5-chlorophenyl)benzo[h]quinazolin-2-amine], the IC50 is 16 µM in the data set with HuH-7; 19 µM in the data set on PC3 [1]; > 25 µM in the data set with normal human fibroblasts; 14 µM with Caco-2 [2]; 13 µM with HCT-116; 20 µM in the data set with MDA-MB-231. Besides, the IC50 with MDA-MB-468 was determined as 19 µM; with MCF7 [6], 14 µM. Besides, the “percentage of cell survival over DMSO control, CaCo-2” value (shortened to “percentage of cell survival”) in the data set with Caco-2 [3] was found to be 35%. Moreover, the viability at 25 µM came out at 49% with HuH7; 13% in the data set with HCT116; 73% in the data set with MCF7 [4]; 41% in the data set on MDA231; 38% in the data set with MDA468; 24% with PC3 [5].

For `Clc1ccccc1Nc1ncc2ccc3ccccc3c2n1` [Compound 4k, N-(2-chlorophenyl)benzo[h]quinazolin-2-amine], the IC50 with HuH-7, in the data set on PC3 [1], in the data set with normal human fibroblasts, in the data set with Caco-2 [2], with HCT-116 and in the data set on MDA-MB-231 was > 25 µM each time. Moreover, the half-maximal inhibitory concentration (IC50) in the data set on MDA-MB-468 and in the data set on MCF7 [6] was > 25 µM each time. Moreover, the “percentage of cell survival” value in the data set on Caco-2 [3] is recorded as 61%. In addition, the viability at 25 µM was found to be 76% with HuH7; 83% in the data set on HCT116; 56% in the data set on MCF7 [4]; 91% with MDA231; 93% with MDA468; 73% in the data set with PC3 [5].

Turning to `COc1ccc(Nc2ncc3ccc4ccccc4c3n2)cc1` [Compound 4g, N-(4-methoxyphenyl)benzo[h]quinazolin-2-amine], the “percentage of cell survival” value in the data set with Caco-2 [3] turned out to be 81%. Also, the viability at 25 µM in the data set with HuH7 is 79%; with HCT116, 72%; in the data set with MCF7 [4], 83%; in the data set with MDA231 it was 87%; in the data set on MDA468, 90%; with PC3 [5], 82%.

`Fc1ccc(Nc2ncc3ccc4ccccc4c3n2)cc1` [Compound 4j, N-(4-fluorophenyl)benzo[h]quinazolin-2-amine]: the “percentage of cell survival” value in the data set with Caco-2 [3] is 77%. Besides, the viability at 25 µM in the data set on HuH7 is 92%; in the data set on HCT116 it was 81%; with MCF7 [4] it was 81%; with MDA231, 91%; with MDA468, 95%; with PC3 [5], 78%.

As to `Clc1cccc(Nc2ncc3ccc4ccccc4c3n2)c1` [Compound 4l, N-(3-chlorophenyl)benzo[h]quinazolin-2-amine], the IC50 in the data set on HuH-7 was 22 µM; in the data set on PC3 [1], 26 µM; with normal human fibroblasts, > 25 µM; in the data set on Caco-2 [2] it was 17 µM; with HCT-116, 24 µM; in the data set on MDA-MB-231, > 25 µM. In addition, the IC50 worked out at 26 µM with MDA-MB-468 and 18 µM in the data set on MCF7 [6]. In the data set on Caco-2 [3], the “percentage of cell survival” value was 38%. For the same compound, the viability at 25 µM was determined as 71% in the data set on HuH7; 56% in the data set with HCT116; 68% with MCF7 [4]; 67% in the data set on MDA231; 78% in the data set on MDA468; 59% in the data set with PC3 [5].

Take `Cc1cc(Nc2ncc3ccc4ccccc4c3n2)ccc1Br` [Compound 4r, N-(4-bromo-3-methylphenyl)benzo[h]quinazolin-2-amine]: the “percentage of cell survival” value in the data set with Caco-2 [3] was 76%. Further, the viability at 25 µM with HuH7 turned out to be 80%; in the data set with HCT116, 100%; in the data set on MCF7 [4], 85%; with MDA231 it was 101%; with MDA468 it was 96%; in the data set with PC3 [5], 89%.

`Fc1ccc(Nc2ncc3ccc4ccccc4c3n2)cc1F` [Compound 4n, N-(3,4-difluorophenyl)benzo[h]quinazolin-2-amine]: the “percentage of cell survival” value with Caco-2 [3] was found to be 72%. Further, the viability at 25 µM in the data set on HuH7 amounted to 79%; in the data set on HCT116, 82%; in the data set with MCF7 [4], 97%; in the data set on MDA231, 91%; with MDA468, 85%; in the data set with PC3 [5] it was 82%.

For the compound `Cc1ccccc1Nc1ncc2ccc3ccccc3c2n1` [Compound 4b, N-(o-tolyl)benzo[h]quinazolin-2-amine], the IC50 in the data set on HuH-7, in the data set on PC3 [1], in the data set on normal human fibroblasts, in the data set on Caco-2 [2], with HCT-116 and with MDA-MB-231 was > 25 µM throughout. For the same compound, the IC50 in the data set with MDA-MB-468 and with MCF7 [6] was > 25 µM in each case. Besides, in the data set on Caco-2 [3], the “percentage of cell survival” value amounted to 56%. The viability at 25 µM in the data set with HuH7 was 69%; with HCT116, 79%; in the data set with MCF7 [4], 70%; with MDA231 it was 86%; with MDA468 it was 93%; in the data set with PC3 [5] it was 72%.

On to `Fc1ccccc1Nc1ncc2ccc3ccccc3c2n1` [Compound 4h, N-(2-fluorophenyl)benzo[h]quinazolin-2-amine], for which the IC50 was > 25 µM in the data set with HuH-7; > 25 µM with PC3 [1]; > 25 µM in the data set with normal human fibroblasts; 4.6 µM in the data set on Caco-2 [2]; > 25 µM in the data set on HCT-116; > 25 µM in the data set on MDA-MB-231. Further, the IC50 in the data set on MDA-MB-468 and in the data set on MCF7 [6] was > 25 µM each time. Moreover, in the data set with Caco-2 [3], the “percentage of cell survival” value was 48%. Moreover, the viability at 25 µM was 81% in the data set on HuH7; 82% in the data set with HCT116; 83% in the data set with MCF7 [4]; 83% in the data set on MDA231; 94% in the data set on MDA468; 74% with PC3 [5].

For the compound `Fc1cc(Nc2ncc3ccc4ccccc4c3n2)cc(F)c1F` [Compound 4s, N-(3,4,5-trifluorophenyl)benzo[h]quinazolin-2-amine], in the data set with Caco-2 [3], the “percentage of cell survival” value came out at 65%. Moreover, the viability at 25 µM in the data set with HuH7 came to 77%; in the data set on HCT116 it was 63%; with MCF7 [4], 54%; in the data set with MDA231, 78%; in the data set with MDA468, 78%; in the data set with PC3 [5], 50%.

Regarding `Clc1ccc(Nc2ncc3ccc4ccccc4c3n2)cc1` [Compound 4m, N-(4-chlorophenyl)benzo[h]quinazolin-2-amine], the “percentage of cell survival” value with Caco-2 [3] came to 75%. In addition, the viability at 25 µM in the data set on HuH7 stood at 96%; in the data set with HCT116, 68%; in the data set on MCF7 [4] it was 88%; in the data set on MDA231, 83%; in the data set on MDA468, 88%; in the data set on PC3 [5] it was 74%.

On to `Fc1cc(Cl)cc(Nc2ncc3ccc4ccccc4c3n2)c1` [Compound 4p, N-(3-chloro-5-fluorophenyl)benzo[h]quinazolin-2-amine], for which the “percentage of cell survival” value in the data set with Caco-2 [3] came to 54%. For the same compound, the viability at 25 µM is 80% in the data set on HuH7; 17% in the data set with HCT116; 91% in the data set with MCF7 [4]; 68% with MDA231; 72% with MDA468; 59% in the data set with PC3 [5].
